# Reference: patent US10525064B2, “Anticancer adjuvant containing panaxadiol ginsenocide compound” (priority 2015, dated 2020)
# Tests used:
# [1] = test system: phosphorylated JNK, cleaved-PARP, cleaved-caspase-9 in MCF-7 cells; experiment: Western blot of apoptosis-related proteins; assay type: cell-based, human; conditions: for level of cleaved-caspase-9 / levels of phosphorylated JNK and cleaved-PARP: ginsenoside 10 μg/mL with doxorubicin 5 μg/mL
# Description: MCF-7 cells were charged with a medium containing C-K or PPD (10 μg/mL) and cultured for 12 hours, and the medium was replaced with a medium containing C-K or PPD (10 μg/mL) and doxorubicin (0 μg/mL or 5 μg/mL) and cultured for 24 hours. The cells, upon completion of culture, were disrupted and western blot analyses were performed treated with respect to anti-phosphorylated JNK antibody, anti-PARP antibody, anti-cleaved-PARP antibody, and anti-caspase-9 antibody or anti-cleaved-caspase-9 antibody (FIG. 3A).
# Accordingly, MCF-7 cells were charged with a medium containing PPD (10 μg/mL) and cultured for 12 hours, and the medium was replaced with a medium containing PPD (10 μg/mL) and doxorubicin (5 μg/mL) and cultured for 0 hours, 0.5 hours, 1 hour, 2 hours, 4 hours, or 6 hours. The same western blot analysis was performed using the cultured cells (FIG. 3B). In particular, as a comparative group, cells cultured in a medium containing doxorubicin alone were used instead of the medium containing PPD and doxorubicin.
# [2] = test system: Drp1, Fis1, OPA-3, Mfn1, Mfn2, OPA1 in MCF-7 cells; experiment: Western blot of mitochondrial fission and fusion proteins; assay type: cell-based, human; conditions: ginsenoside 10 μg/mL, 24 hours, FIG. 5B
# Description: Accordingly, western blot analysis was performed with respect to each of the cultured cells and the expression levels of the proteins (Drp1, Fis1, and OPA-3) involved in mitochondrial fission and those of the proteins (Mfn1, Mfn2, and OPA1) involved in mitochondrial fusion were compared (FIG. 5B).
# MCF-7 cells [3] = experiment: Anticancer activity with PARP inhibitor or caspase-9 inhibitor pretreatment; assay type: cell-based, human; conditions: FIG. 3C; for anticancer activity with PARP activity inhibitor, ginsenoside and doxorubicin treated simultaneously: 3-AB pretreatment, ginsenoside 10 μg/mL, doxorubicin 5 μg/mL
# Description: Specifically, a medium containing C-K or PPD (10 μg/mL) was added to MCF-7 cells pretreated with Z-LEHD-FMK (i.e., an inhibitor of caspase-9) or 3-AB (i.e., an inhibitor of PARP) and cultured for 12 hours. The medium was then replaced with a medium containing doxorubicin (0 μg/mL or 5 μg/mL) and cultured for 24 hours. The same western blot analysis was performed using the cultured cells (FIG. 3C).
# [4] = test system: cytochrome-C release in MCF-7 cells; experiment: Cytochrome-C release from mitochondria, immunofluorescent staining; assay type: cell-based, human; conditions: for level of cytochrome-C release compared to doxorubicin treatment alone: then doxorubicin 5 μg/mL 4 hours; for cells in which cytochrome-C was released, of the entire cells: 6 hours after the treatment, FIG. 4B
# Description: MCF-7 cells were charged with a medium containing C-K or PPD (10 μg/mL) and cultured for 24 hours, and the medium was replaced with a medium containing doxorubicin (5 μg/mL) and cultured for 0 hours or 4 hours. The cells, upon completion of culture, were fixed with 4% paraformaldehyde, perforated by adding 0.5% Triton X-100 solution thereto, and the cells were immunostained with anti-cytochrome-C antibody for 30 minutes. Upon completion of the staining, the cells were washed with PBS, reacted with fluorescently-labeled secondary antibody for 30 minutes, washed with PBS, and then photographed using a confocal microscope to measure the levels of fluorescence developed (FIG. 4A).
# In this regard, the present inventors have attempted to confirm whether the level of cytochrome-C release can be changed by the treatment time of doxorubicin. That is, the immunostaining was performed in the same manner as described above, except that MCF-7 cells were charged with a medium containing C-K or PPD (10 μg/mL) and cultured for 24 hours, and the medium was replaced with a medium containing doxorubicin (5 μg/mL), and the cells which were cultured for 0 hours, 0.5 hours, 1 hour, 2 hours, 4 hours, or 6 hours were used. Then, the number of cells in which cytochrome-C was released from mitochondria to cytoplasm was measured (FIG. 4B). In particular, an experimental group not treated with ginsenoside was used as a control.
# MCF-7 cells [5] = experiment: WST-1 viability assay, ginsenoside pretreatment followed by doxorubicin or tamoxifen; assay type: cell-based; conditions: for effect on anticancer activity of doxorubicin: then doxorubicin 5 μg/mL 24 hours, FIG. 2A; for anticancer activity of doxorubicin with ginsenoside compared to doxorubicin alone: ginsenoside 10 μg/mL, doxorubicin 0-50 μg/mL
# Description: Specifically, each of the PPD-type ginsenoside compounds (F2, Rh2, C-K, or PPD) at a concentration of 10 μg/mL was added to MCF-7 cells, cultured for 12 hours, and treated with 20 μM tamoxifen or doxorubicin (5 μg/mL) and cultured for 24 hours. Upon completion of the cultivation, the viability of MCF-7 cells was compared by WST-1 assay (FIG. 2A).
# In this regard, to determine whether the C-K or PPD affects the treatment concentration of doxorubicin, the PPD-type ginsenoside compound (C-K or PPD) was added to the MCF-7 cells at a concentration of 10 μg/mL and cultured for 12 hours. Then, the MCF-7 cells were treated with doxorubicin at various concentrations (0 μg/mL, 0.1 μg/mL, 0.5 μg/mL, 1 μg/mL, 2 μg/mL, 5 μg/mL, 10 μg/mL, and 50 μg/mL) and cultured for 24 hours. Upon completion of the culture, the viability of the MCF-7 cells and the LC50 values calculated therefrom were compared by WST-1 assay (FIG. 2B).
# [6] = test system: mitochondria of MCF-7 cells; experiment: Mitochondria immunostaining with anti-Tom-20 antibody; assay type: cell-based, human; conditions: ginsenoside 10 μg/mL, 24 hours, FIG. 5A
# Description: That is, MCF-7 cells were charged with a medium containing C-K or PPD (10 μg/mL) and cultured for 24 hours. The cells, upon completion of culture, were fixed with 4% paraformaldehyde, perforated by adding 0.5% Triton X-100 solution thereto, and mitochondria of the cells were immunostained with anti-Tom-20 antibody. Upon completion of staining, the cells were washed with PBS and then photographed using a confocal microscope to measure the levels of fluorescence developed (FIG. 5A).
# MCF-7 cells [7] = experiment: WST-1 viability assay, PPD-type ginsenoside compounds alone; assay type: cell-based, human; conditions: 0-200 μg/mL, 24 hours, FIG. 1
# Description: First, MCF-7 cells, a human breast cancer cell line, were inoculated into DMEM medium containing 10% FBS and 1% penicillin/streptomycin, cultured in conditions of 5% CO2 and 37° C. When the cultured MCF-7 cells were saturated the cells were sub-cultured at intervals of 3 days to 5 days.
# Then, the cultured MCF-7 cells were treated with various concentrations (0 μg/mL, 5 μg/mL, 10 μg/mL, 20 μg/mL, 50 μg/mL, 100 μg/mL, or 200 μg/mL) of PPD-type ginsenoside compounds (F2, Rh2, C-K, or PPD) for 24 hours, and the viability of these cells was measured by performing WST-1 assay on the MCF-7 cells (FIG. 1). In particular, WST-1 assay was performed by inoculating each of the MCF-7 cells in a medium containing 10% EZ-Cytox and reacting at 37° C. for 1.5 hours. The level of water-soluble formazan dye produced by the viable cells was measured by absorbance at 450 nm and the results were analyzed to calculate the cell viability of the cells.
# MCF-7 cells [8] = experiment: WST-1 viability assay in siRNA-treated cells with doxorubicin or tamoxifen; assay type: cell-based, human; conditions: 5 μM doxorubicin or 20 μM tamoxifen, 24 hours, FIG. 6B; for change of anticancer activity where mitochondrial fission was induced by Mfn1 or Mfn2 siRNA: Mfn2 versus Mfn1 inhibition; for anticancer activity (viability of MCF-7 cells): siRNA-introduced cells
# Description: Meanwhile, each of the synthesized siRNAs was introduced into MCF-7 cells and cultured for 12 hours. The cells were cultured further for 48 hours in a normal medium containing no siRNA, treated with 5 μM doxorubicin or 20 μM tamoxifen, and cultured for 24 hours. Upon completion of culture, the viability of the MCF-7 cells was compared by WST-1 assay (FIG. 6B). In particular, an experimental group not treated with doxorubicin or tamoxifen was used as a control.
# [9] = ginsenoside 10 μg/mL 24 hours, FIG. 4A
# [10] = ginsenoside 10 μg/mL 24 hours, then doxorubicin 5 μg/mL
SMILES,"level of cleaved-caspase-9 ([1]; 24 hours, FIG. 3A)","levels of phosphorylated JNK and cleaved-PARP ([1]; 24 hours, FIG. 3A)",expression level of Mfn2 (mitochondrial fusion protein) [2],expression level of OPA-3 (mitochondrial fission protein) [2],"anticancer activity with PARP activity inhibitor, ginsenoside and doxorubicin treated simultaneously (MCF-7 cells [3])","level of cytochrome-C release compared to doxorubicin treatment alone [4, 9]","cells in which cytochrome-C was released, of the entire cells [4, 10] [%]",effect on anticancer activity of doxorubicin (MCF-7 cells [5]; ginsenoside 10 μg/mL 12 hours),anticancer activity of doxorubicin with ginsenoside compared to doxorubicin alone (MCF-7 cells [5]; FIG. 2B),mitochondrial damage [6],anticancer activity (viability of MCF-7 cells) (MCF-7 cells [7]),change of anticancer activity where mitochondrial fission was induced by Mfn1 or Mfn2 siRNA (MCF-7 cells [8]),anticancer activity (viability of MCF-7 cells) (MCF-7 cells [8]),further results
"CC(C)=CCC[C@](C)(O[C@@H]1OC(CO)[C@@H](O)C(O)C1O)C1CC[C@]2(C)C1[C@H](O)CC1[C@@]3(C)CCC(O)C(C)(C)C3CC[C@]12C (stereo partly shown) [C-K, compound-K]",significantly increased,not affected,decreased,increase,slightly recovered,increased the level of cytochrome-C release,20,could enhance the anticancer activity of doxorubicin,increased,damage was observed,relatively excellent anticancer activity,,,
"CC(C)=CCC[C@](C)(O[C@@H]1O[C@H](CO)[C@@H](O)[C@H](O)[C@H]1O)[C@H]1CC[C@]2(C)[C@@H]1[C@H](O)C[C@@H]1[C@@]3(C)CC[C@H](O[C@@H]4O[C@H](CO)[C@@H](O)[C@H](O)[C@H]4O)C(C)(C)[C@@H]3CC[C@]12C [F2, reference compound]",,,,,,,,no particular effect on doxorubicin,,,,,,"LC50 of doxorubicin treated simultaneously with ginsenoside (MCF-7 cells [5]; ginsenoside 10 μg/mL 12 hours, then doxorubicin 0-50 μg/mL 24 hours, FIG. 2B): about 10 μg/mL"
"CC(C)=CCC[C@](C)(O)[C@H]1CC[C@]2(C)[C@@H]1[C@H](O)C[C@@H]1[C@@]3(C)CC[C@H](O)C(C)(C)[C@@H]3CC[C@]12C [PPD, protopanaxadiol]",significantly increased,not affected,decreased,increase,slightly recovered,increased the level of cytochrome-C release,43,could enhance the anticancer activity of doxorubicin,increased,damage was observed,relatively excellent anticancer activity,,,"formation of cleaved-PARP and cleaved-caspase-9 according to treatment time ([1]; PPD 10 μg/mL with doxorubicin 5 μg/mL, 0-6 hours, versus doxorubicin alone, FIG. 3B): formed more rapidly"
"COc1cccc2c1C(=O)c1c(O)c3c(c(O)c1C2=O)C[C@@](O)(C(=O)CO)C[C@@H]3O[C@H]1C[C@H](N)[C@H](O)[C@H](C)O1 [doxorubicin, reference compound]",,,,,,,,,,,,further increased,significantly high level of anticancer activity,"levels of phosphorylated JNK, cleaved-PARP, and cleaved-caspase-9 ([1]; doxorubicin 5 μg/mL, 24 hours, FIG. 3A): increased; anticancer effect of doxorubicin with PARP or caspase-9 activity inhibitor (MCF-7 cells [3]; Z-LEHD-FMK or 3-AB pretreatment, doxorubicin 5 μg/mL 24 hours): inhibited; cells in which cytochrome-C was released, of the entire cells ([4]; doxorubicin 5 μg/mL alone (control)): 7%; level of cytochrome-C release compared to no doxorubicin treatment ([4]; doxorubicin 5 μg/mL, 4 hours, FIG. 4A): increased the level of cytochrome-C release; CC50 (MCF-7 cells [5]; Homo sapiens, MCF7, 24 h, read-out: LC50 of doxorubicin): ~10 µg/mL"
CC/C(=C(\c1ccccc1)c1ccc(OCCN(C)C)cc1)c1ccccc1 [tamoxifen],,,,,,,,,,,,no difference in anticancer activity,showed anticancer activity,
